{
  "source": "patent US20090087431A1",
  "about": "“METHODS OF TREATING BONE DISORDERS WITH MODULATORS OF AXL” (Wyeth, priority 2007, published 2009)",
  "key": {"Clone 14 cells": {"system": "Clone 14 cells", "test": "Osteocalcin mRNA after siRNA transfection, osteoblast differentiation", "type": "cell-based, murine", "details": "all tested conditions (with and without BMP2), p<0.05", "description": "The role of Axl in osteoblast differentiation from an osteoprogenitor cell was investigated using RNA interference in the murine Clone 14 cell line. In these experiments, siRNA reagents against murine Axl were transfected into cells treated with either 0 ng/ml or 100 ng/ml BMP2. The induction of osteocalcin gene expression, an established osteoblast marker, was measured to assess osteoblast differentiation 4 days after the onset of treatment and transfection.\nClone 14 cells were seeded at 20,000 cells/well in a 96-well plate and cultured in DMEM media supplemented with 10% fetal bovine serum (FBS) and 1% L-glutamine. The following day, cells were transfected for 4 hours with siRNA at a final concentration of 20 nM using 0.5% (final) Lipofectamine2000 (Invitrogen, Carlsbad, Calif.). Cells were then cultured in DMEM supplemented with 1% FBS and 1% penicillin/streptomycin. […]\nTo assess the consequence of Axl knockdown on osteoblast differentiation, osteocalcin mRNA levels were monitored. […]\nAn additional negative control was the same non-specific, scrambled siRNA described above (NSP). Osteocalcin mRNA levels were monitored by real-time RT-PCR as above using the primers set forth in SEQ ID NO:9, SEQ ID NO:10, and SEQ ID NO:11 and shown below:\nOsteocalcin mRNA levels are shown relative to those monitored in cells transfected with a scrambled, non-specific siRNA (NSP). […]"}, "MC3T3-E1 cells": {"system": "MC3T3-E1 cells", "test": "Formation of mineralized nodules, Alizarin red staining", "type": "cell-based, murine", "details": "20 nM siRNA, Day 17 post-transfection, vs scrambled siRNA or mock", "description": "MC3T3-E1 cells were seeded at a density of 50,000 cells/well of a 6-well plate and cultured in Alpha media supplemented with 1% glutamine and 10% FBS. The following day the cells were transfected with 20 nM (final concentration) siRNA using 0.4% (final) Oligofectamine (Invitrogen) for 4 hours. The siRNAs used in this study include the pool of Axl siRNAs and the Cbfa1/Runx2 siRNA described above. In addition two control treatments were included: a mock transfection where no siRNA was introduced and a non-specific, scrambled siRNA (as described).\nFollowing transfection, the cells were maintained in Alpha media supplemented with 1% glutamine, 10% FBS and 10 mM β-glycerophosphate, a cofactor necessary for mineralization, with no other osteogenic agents. […]\nTo determine mineralization, cells were washed in PBS, fixed in cold ethanol and stained with Alizarin red using standard protocols. Semi-quantification of the extent of mineralization was conducted by de-staining the cells in 10% Cetylpyridinium chloride in 10 mM sodium phosphate for 15 minutes at room temperature. Supernatants were removed and absorbance at 570 nm measured. Concentrations were determined by obtaining absorbance measurements of a standard curve of known dilutions of Alizarin red (range from 50-400 uM). Mineralization was visually assessed by the presence of red-stained nodules."}},
  "data": [
    {"substance": "Runx2/Cbfa1: siRNA against Runx2/Cbfa1, 5′-CGUGAAUGGUCAUAAUAACU-3′; negative control (listed as RNA, chemistry not given here)", "values": [
      {"measurement": "osteoblast differentiation as monitored by osteocalcin mRNA expression", "setting": "Clone 14 cells", "value": "dramatically repressed"},
      {"measurement": "extent of mineralization (visual, Alizarin red)", "setting": "MC3T3-E1 cells", "value": "dramatic reduction"}
    ]}
  ]
}
